Experimental data as given in the supplement of paper PMC13380429.

Columns and labels:
[1] = tested on: A549-ACE2 infected with SARS-CoV-2; experiment: SARS-CoV-2 infection rate relative to DMSO; higher = more infection; conditions: 24 h
[2] = tested on: A549-ACE2; experiment: phospholipidosis EC50; higher = less potent phospholipidosis inducer
[3] = tested on: HepG2; experiment: drug sensitivity score (DSS) for viability; higher = more toxic; extreme values may be limits of the assay; conditions: 72 h
[4] = tested on: Vero E6; experiment: as above; conditions: 72 h
[5] = tested on: Caco-2; experiment: as above; conditions: 72 h
[6] = tested on: U2OS; experiment: as above; conditions: 72 h
[7] = tested on: Calu-3; experiment: as above; conditions: 72 h
[8] = tested on: A549-ACE2 infected with SARS-CoV-2; experiment: morphology score (similarity to uninfected cells); higher = more like uninfected cells; conditions: 24 h
[9] = tested on: A549-ACE2; experiment: drug-induced phospholipidosis relative to tamoxifen; higher = more phospholipidosis
[10] = tested on: A549-ACE2 infected with SARS-CoV-2; experiment: cell count relative to DMSO; higher = less toxic; conditions: 24 h
[11] = tested on: HepG2; experiment: relative viability EC50 (midpoint between 100% and the lowest measured viability); higher = less toxic; conditions: 72 h
[12] = tested on: Vero E6; experiment: as above; conditions: 72 h
[13] = tested on: Calu-3; experiment: as above; conditions: 72 h
[14] = tested on: HepG2; experiment: cell viability relative to DMSO; higher = less toxic; conditions: 72 h
[15] = tested on: Vero E6; experiment: as above; conditions: 72 h
[16] = tested on: Caco-2; experiment: as above; conditions: 72 h
[17] = tested on: U2OS; experiment: as above; conditions: 72 h
[18] = tested on: Calu-3; experiment: as above; conditions: 72 h
[19] = tested on: Caco-2; experiment: relative viability EC50 (midpoint between 100% and the lowest measured viability); higher = less toxic; conditions: 72 h
[20] = tested on: U2OS; experiment: as above; conditions: 72 h

CCCCCCCCc1ccc(CCC(N)(CO)CO)cc1 [fingolimod]
Conditions	SARS-CoV-2 infection rate [%]	cell count [%]	cell viability [%]	morphology score	phospholipidosis EC50 [µM]
[1], 0.3 µM	100	–	–	–	–
[1], 3 µM	64	–	–	–	–
[1], 10 µM	12	–	–	–	–
[2], 24 h	–	–	–	–	3.36
[2], 48 h	–	–	–	–	3.04
[2], 72 h	–	–	–	–	5.67
[8], 0.3 µM	–	–	–	-0.2	–
[8], 3 µM	–	–	–	0.46	–
[8], 10 µM	–	–	–	0.74	–
[10], 0.3 µM	–	100	–	–	–
[10], 3 µM	–	109	–	–	–
[10], 10 µM	–	114	–	–	–
[14], 1 nM	–	–	107	–	–
[14], 10 nM	–	–	105	–	–
[14], 100 nM	–	–	99.5	–	–
[14], 1000 nM	–	–	98	–	–
[14], 10000 nM	–	–	0.4	–	–
[15], 1 nM	–	–	105	–	–
[15], 10 nM	–	–	95.4	–	–
[15], 100 nM	–	–	105	–	–
[15], 1000 nM	–	–	101	–	–
[15], 10000 nM	–	–	84.7	–	–
[16], 1 nM	–	–	101	–	–
[16], 10 nM	–	–	100	–	–
[16], 100 nM	–	–	87.2	–	–
[16], 1000 nM	–	–	93.8	–	–
[16], 10000 nM	–	–	55.7	–	–
[17], 1 nM	–	–	102	–	–
[17], 10 nM	–	–	105	–	–
[17], 100 nM	–	–	102	–	–
[17], 1000 nM	–	–	105	–	–
[17], 10000 nM	–	–	71.9	–	–
[18], 1 nM	–	–	101	–	–
[18], 10 nM	–	–	104	–	–
[18], 100 nM	–	–	102	–	–
[18], 1000 nM	–	–	94.9	–	–
[18], 10000 nM	–	–	8.4	–	–

Conditions	drug sensitivity score	relative viability EC50 [µM]
[3]	5.8	–
[4]	0.2	–
[5]	3.3	–
[6]	0.9	–
[7]	5.8	–
[11]	–	3.02
[12]	–	> 10
[13]	–	2.73

drug-induced phospholipidosis [%], [9]
Conditions	0.3 µM	0.833333 µM	3.33333 µM	6.66667 µM	10 µM
24 h	9.06	18.8	83.3	124	138
48 h	8.05	10.9	84.5	114	135
72 h	4.63	6.35	49.7	102	130

FC(F)(F)c1ccc(CNc2ccc(Cc3c[nH]c4ncc(Cl)cc34)cn2)cn1 [pexidartinib]
Conditions	SARS-CoV-2 infection rate, [1] [%]	cell count, [10] [%]	cell viability, [14] [%]	cell viability, [15] [%]	cell viability, [16] [%]	cell viability, [17] [%]	cell viability, [18] [%]	morphology score, [8]
1 nM	–	–	107	99.7	81.7	94.2	108	–
10 nM	–	–	92.2	96.4	95.7	100	108	–
100 nM	–	–	105	103	98.2	97.9	97.6	–
0.3 µM	104	95	–	–	–	–	–	-0.17
1000 nM	–	–	94.5	95.3	94.6	102	102	–
3 µM	102	101	–	–	–	–	–	0.07
10 µM	103	101	–	–	–	–	–	0.25
10000 nM	–	–	80.7	113	94.5	96.8	90	–
30 µM	67	92	–	–	–	–	–	0.46

Conditions	drug sensitivity score	relative viability EC50 [µM]
[3]	1.2	–
[4]	0	–
[5]	0	–
[6]	0	–
[7]	0	–
[11]	–	> 10
[12]	–	> 10
[13]	–	> 10
[19]	–	> 10
[20]	–	> 10

drug-induced phospholipidosis [%], [9]
Conditions	0.3 µM	0.833333 µM	3.33333 µM	6.66667 µM	10 µM	30 µM
24 h	1.33	-1.52	1.3	5.68	7.59	11.6
48 h	2.9	-0.74	2.56	7.51	9.31	14.4
72 h	4.54	-1.68	3.26	9.4	15.6	20.7

COc1cc(NC(C)CCCN)c2ncccc2c1 (stereo not given) [primaquine]
Conditions	SARS-CoV-2 infection rate, [1] [%]	cell count, [10] [%]	cell viability, [14] [%]	cell viability, [15] [%]	cell viability, [16] [%]	cell viability, [17] [%]	cell viability, [18] [%]	morphology score, [8]
1 nM	–	–	122	108	103	103	104	–
10 nM	–	–	107	105	108	102	90.7	–
100 nM	–	–	108	99.7	91.8	102	106	–
0.3 µM	97	102	–	–	–	–	–	-0.01
1000 nM	–	–	110	102	93.9	101	100	–
10000 nM	–	–	80.3	89.9	45.2	88.9	76.9	–

Conditions	drug sensitivity score	relative viability EC50 [µM]
[3]	0.3	–
[4]	0	–
[5]	4	–
[6]	0	–
[7]	0.8	–
[11]	–	> 10
[12]	–	> 10
[13]	–	> 10
[19]	–	2.25
[20]	–	> 10

[9], 0.3 µM
Conditions	drug-induced phospholipidosis [%]
24 h	2.39
48 h	2.15
72 h	2.76

CCN(CC)CCNC(=O)c1c(C)[nH]c(/C=C2\C(=O)Nc3ccc(F)cc32)c1C [sunitinib]
Conditions	morphology score, 0.1 µM	morphology score, 0.3 µM	morphology score, 1 µM	morphology score, 3 µM	phospholipidosis EC50, 24 h [µM]	phospholipidosis EC50, 48 h [µM]	phospholipidosis EC50, 72 h [µM]
[2]	–	–	–	–	4.75	4.77	3.32
[8]	0.28	0.35	0.53	0.51	–	–	–

Conditions	drug sensitivity score
[3]	9
[4]	4.1
[5]	5.7
[6]	4
[7]	0.1

COc1ccc2cc(-c3nc(-c4ccc([S+](C)[O-])cc4)[nH]c3-c3ccncc3)ccc2c1 (stereo not given) [tie2-kinase-inhibitor]
Conditions	SARS-CoV-2 infection rate [%]	cell count [%]	cell viability [%]	morphology score	phospholipidosis EC50 [µM]
[1], 0.3 µM	98	–	–	–	–
[1], 3 µM	87	–	–	–	–
[1], 10 µM	43	–	–	–	–
[1], 30 µM	59	–	–	–	–
[2], 24 h	–	–	–	–	7.52
[2], 48 h	–	–	–	–	6.68
[8], 0.3 µM	–	–	–	0.15	–
[8], 3 µM	–	–	–	0.39	–
[8], 10 µM	–	–	–	0.69	–
[8], 30 µM	–	–	–	0.58	–
[10], 0.3 µM	–	101	–	–	–
[10], 3 µM	–	114	–	–	–
[10], 10 µM	–	122	–	–	–
[10], 30 µM	–	112	–	–	–
[14], 1 nM	–	–	109	–	–
[14], 10 nM	–	–	103	–	–
[14], 100 nM	–	–	98.6	–	–
[14], 1000 nM	–	–	91.7	–	–
[14], 10000 nM	–	–	79.9	–	–
[15], 1 nM	–	–	102	–	–
[15], 10 nM	–	–	102	–	–
[15], 100 nM	–	–	97.1	–	–
[15], 1000 nM	–	–	104	–	–
[15], 10000 nM	–	–	98.9	–	–
[16], 1 nM	–	–	104	–	–
[16], 10 nM	–	–	102	–	–
[16], 100 nM	–	–	108	–	–
[16], 1000 nM	–	–	89.6	–	–
[16], 10000 nM	–	–	97.4	–	–
[17], 1 nM	–	–	104	–	–
[17], 10 nM	–	–	97.3	–	–
[17], 100 nM	–	–	106	–	–
[17], 1000 nM	–	–	96.5	–	–
[17], 10000 nM	–	–	84.6	–	–
[18], 1 nM	–	–	104	–	–
[18], 10 nM	–	–	103	–	–
[18], 100 nM	–	–	101	–	–
[18], 1000 nM	–	–	98.1	–	–
[18], 10000 nM	–	–	56.7	–	–

Conditions	drug sensitivity score	relative viability EC50 [µM]
[3]	1.2	–
[4]	0	–
[5]	0.1	–
[6]	0.6	–
[7]	2.5	–
[11]	–	> 10
[12]	–	> 10
[19]	–	> 10
[20]	–	> 10

drug-induced phospholipidosis [%], [9]
Conditions	0.3 µM	0.833333 µM	3.33333 µM	6.66667 µM	10 µM	30 µM
24 h	3.67	4.27	13.4	35.8	68	86.8
48 h	4.58	3.03	14.7	33.7	65	56.9
72 h	3.91	-0.14	11.2	35.7	69.8	–

CN(C)CCCN1c2ccccc2Sc2ccc(C(F)(F)F)cc21 [triflupromazine]
Conditions	morphology score, 0.3 µM	morphology score, 3 µM	morphology score, 10 µM	morphology score, 30 µM	phospholipidosis EC50, 24 h [µM]	phospholipidosis EC50, 48 h [µM]	phospholipidosis EC50, 72 h [µM]
[2]	–	–	–	–	4.26	11.7	3.51
[8]	0.09	0.65	0.84	0.41	–	–	–
